Format in all cases: cell-based, human
Assay [1] concerns DSCR1. The assay is described as follows: GeneCalling analysis of DSCR1 mRNA expression in HUVECs. Particulars: VEGF 30 ng/mL, relative to basal conditions. From the text: (§1) Cells and cell assays. Primary human endothelial cells were purchased from Clonetics (Santa Rosa, Calif.) and cultured according to the manufacturer's instructions. For gene calling experiments, human umbilical vein endothelial cells (HUVECs) were purchased from Clonetics (BioWhittaker, Walkersville, Md.) and maintained in endothelial growth medium (EBM-2) complemented with 5% fetal calf serum (FCS) following the manufacturer's instructions. Cells (1×107) were split at a cell density of 19 000 cell/cm2 and triplicate experiments for each condition were run in parallel. Twenty-four hours after plating the cells, cell were washed 3 times with phosphate-buffered saline (PBS) and media (Clonetics) containing either 0.1% bovine serum albumin (BSA) or 0.1% BSA plus VEGF (30 ng/mL) or 5% FCS. RNA isolation and reverse transcription-PCR (RT-PCR) analysis was performed as described.^21 For cell culture experiments, the following conditions were used: human (h) VEGF, 30 ng/mL; hTNF-α, 10 ng/mL; PMA, 200 ng/mL (Calbiochem, LaJolla, Calif.); CsA, 1 μM (Calbiochem); IO 5 μM (Sigma, St Louis, Mo.); thapsigargin, 50 nM (Sigma). […] 24 hours after serum starvation and dosing, cell were counted on a Coulter brand style cell counter. […]

In a further assay the test system is HUVECs. The assay is described as follows: GeneCalling gene expression profiles of stimulated HUVECs.
Text: as §1

For assay [2], the system named is DSCR1. The assay is described as follows: DSCR1 expression analysis by real-time RT-PCR (TaqMan) in HUVECs. As to conditions: serum-starved HUVECs, over 36 hours. From the text:
(§2) Cells and cell assays. Primary human endothelial cells were purchased from Clonetics (Santa Rosa, Calif.) and cultured according to the manufacturer's instructions. For gene calling experiments, human umbilical vein endothelial cells (HUVECs) were purchased from Clonetics (BioWhittaker, Walkersville, Md.) and maintained in endothelial growth medium (EBM-2) complemented with 5% fetal calf serum (FCS) following the manufacturer's instructions. Cells (1×107) were split at a cell density of 19 000 cell/cm2 and triplicate experiments for each condition were run in parallel. Twenty-four hours after plating the cells, cell were washed 3 times with phosphate-buffered saline (PBS) and media (Clonetics) containing either 0.1% bovine serum albumin (BSA) or 0.1% BSA plus VEGF (30 ng/mL) or 5% FCS. RNA isolation and reverse transcription-PCR (RT-PCR) analysis was performed as described.^21 For cell culture experiments, the following conditions were used: human (h) VEGF, 30 ng/mL; hTNF-α, 10 ng/mL; PMA, 200 ng/mL (Calbiochem, LaJolla, Calif.); CsA, 1 μM (Calbiochem); IO 5 μM (Sigma, St Louis, Mo.); thapsigargin, 50 nM (Sigma). In one instance inhibiting (si) RNAs were generated by Dharmacon (Lafayette, Colo.) based on the full-length cDNAs of the respective gene and using the “Smart-pool” service (Dharmacon, Lafayette, Colo.). For adenoviral transduction survival experiments, human umbilical vein endothelial cells (HUVECs) were maintained in endothelial growth medium (EBM-2) complemented with 5% FCS following the manufacturer's instructions. 3×10^5 cells were split per well of a 6 well plate (Primaria, BD Biosciences, Bedford, Mass.) and duplicate experiments for each condition were run in parallel. Cells were infected with adenovirus (MOI=100) encoding for a gD peptide (Ad-Control), DSCR1 (Ad-DSCR1) or an antisense construct with the coding sequence inverted (Ad-DSCR1-AS) for 2 h in serum free media containing 10 mM […] and 10 nM MgCl2 on a vertical shaker at room temperature. Thereafter, 5 times the volume of regular growth medium containing 5% FCS was added and cells were kept for 1 day in a CO2 incubator. Thereafter, cells were washed three times with PBS and basal media (Clonetics, Santa Rosa, Calif.) containing 0.1 % BSA was added and PMA/IO, H202, and ZVAD as indicated. 24 hours after serum starvation and dosing, cell were counted on a Coulter brand style cell counter. For cell culture experiments, the following conditions were used: PMA: 200 ng/ml (Calbiochem, LaJolla, Calif.), Ionomycine: 5 μM (Sigma, St. Louis, Mo.), a 3% H202 solution was diluted 1:300 in basal media, 0.1% BSA to result in a 0.01% H202 solution, ZVAD 5 μM.
For orientation: Quantitative PCR measures a nucleic acid by following its amplification.

Assay [3] has as its system DSCR1. Kind of assay: DSCR1 expression by real-time RT-PCR in HPAECs, HMVECs and HUAECs. Particulars: HMVECs, HUAECs.
Text: as §1

In assay [4] the test system is DSCR1. The assay is described as follows: Western blot of DSCR1 protein in whole cell extracts of HUVECs. Particulars: 6 hours of stimulation. As to the method:
Cells cultured in 10-cm dishes were washed twice in Tris (tris(hydroxymethyl)aminomethane)-buffered saline, and 0.6 mL RIPA buffer (10 mM PBS, 1% Nonidet P-40, 0.5% sodium deoxycholate, 0.1% sodium dodecyl sulfate [SDS], […] phenylmethylsulfonyl fluoride, 30 μg/mL aprotinin, 1 mM sodium orthovanadate), and protease inhibitors (Roche Pharmaceuticals, Gaithersburg, Md.) were added. Mouse monoclonal antibody (mAb) directed against human NFATc 1, c2, and c3 was purchased from Santa Cruz Biotechnology (Santa Cruz, Calif.). Affinity-purified goat polyclonal antibody against human E-selectin, vascular cell adhesion molecule-1 (VCAM-1), intercellular adhesion molecule-1 (ICAM-1), and Cox-2 was from BD Pharmingen. Total endothelial cell extract, polyacrylamide gel electrophoresis (PAGE), blotting, and immunodetection were performed according to the Santa Cruz Biotechnology protocol. A total of […] whole-cell extract was loaded on each lane of a 4% to 16% polyacrylamide gel. The enhanced chemiluminescence (ECL) reaction kit was purchased from Amersham Pharmacia Biotech (Piscataway, N.J.), and horseradish peroxidase streptavidin from Vector Laboratories (Burlingame, Calif.) was used. For NFATc1 experiments, equal amounts of cell extract were loaded to visualize NFATc1 (mAb 7A6; 1:500; Santa Cruz Biotechnology) and the loading control α-tubulin (mAb from ICN, Santa Ana, Calif.; 1:5000). For Cox-2 and TF immunoblot analysis equal amounts of cell lysate were loaded on a 6% to 12% gradient SDS-PAGE. Cox-2 was analyzed with an anti-Cox2 mAb (RDI, 1:500) and TF with an anti-hTF mAb (clone 7G11) was generated at Genentech, and used at a 1:500 dilution. Before loading the samples on the gel, the protein amounts were quantified and adjusted accordingly. As loading control, an anti-γ-adaptin mAb was used (1:1000) on a 4% to 20% polyacrylamide gel.
DSCR1 was PCR amplified with primers DSCR1-EcoRI-Pro 5′, adding an extra proline and DSCR1-Stop-XhoI 3′, by using DSCR1 cDNA as a template and cloned into pGEX-KG. GST-DSCR1 was expressed and purified essentially as described previously.^23 Polyclonal rabbit anti-GST-DSCR1 was prepared by immunization with recombinant GST-DSCR1. Filtered crude serum was used for Western blots (1:400).
For orientation: Immunoblotting shows a protein as a band on a membrane.

For a further assay, the system named is NFATc1. The assay is described as follows: IHC/immunofluorescence analysis of nuclear translocation of NFATc1. As to conditions: endothelial cells, 20 minutes after VEGF 30 ng/mL; adenoviral transduction MOI=100. As to the method: Primary human endothelial cells (7×10^3 cells/cm^2) were seeded into each well of an 8-chamber microscope slide (Nalgene Nunc, Naperville, Ill.) 24 hours prior to staining. Cells were infected with adenovirus (multiplicity of infection [MOI]=100) encoding for LacZ or DSCR1 for 2 hours in serum-free media containing 10 mM CaCl2 and 10 nM MgCl2 on a vertical shaker at room temperature. Thereafter, 5 times the volume of regular growth medium was added and cells were kept for 2 days in a CO2 incubator. After replacing the media, cells were treated with hVEGF at a concentration of 30 ng/mL for 20 minutes. Prior to incubation with various antibodies, cells were fixed with methanol for 4 minutes at −20° C. and washed with PBS at room temperature. Cells were incubated in PBS containing the primary mouse antihuman NFATc1 antibody (sc7294, Santa Cruz Biotechnology) for 1 hour at room temperature. Cells were then washed 3 times with PBS and incubated in PBS containing Alexa Fluor 488 antimouse IgG (Molecular Probes, Eugene, Oreg.). Cells were finally washed 3 times with PBS and mounted beneath coverslips in Vectashield medium (Vector Laboratories). Microscopy and photography were conducted using a Zeiss Axiovert 200 fluorescence microscope fitted with an AxioCam MR monochrome camera (Zeiss, Thornwood, N.Y.) using a ×63 oil objective.

For the next assay, the system named is Cox-2, E-selectin, TF. Kind of assay: Real-time RT-PCR of inflammatory marker / VEGF target genes in HUVECs.
Text: as §2

As for VEGF, the “induced DSCR1 mRNA expression” value in the assay on DSCR1 [1] (after 6 hours) is 4.8 fold; in the assay on DSCR1 [1] (after 24 hours) it was 2.9 fold. In addition, the entries for the “changes in traces representing alterations in expression of genes” value in the assay on HUVECs (after 6 hours) and with HUVECs (after 24 hours) were 1.7% and 3.4%, respectively. Besides, the “DSCR1 expression levels (real-time RT-PCR)” value with DSCR1 [2] is “induced prolonged expression of DSCR1”. The “DSCR1 expression (real-time RT-PCR)” value in the assay with DSCR1 [3] is reported as “increased levels of DSCR1 expression”. The DSCR1 protein levels result with DSCR1 [4] is listed as “induction of DSCR1”. Besides, in the assay on NFATc1, the “nuclear localization of NFATc1” value was “prominent nuclear localization of NFATc1”. The “expression of Bcl-2” value in the assay on Cox-2, E-selectin, TF (HUVECs, VEGF stimulation, entire experiment) is on record as “consistently expressed”. The “GM-CSF, TF, COX-2, VCAM-1 and E-selectin RNA levels” value is listed as “increased” in the assay on Cox-2, E-selectin, TF (HUVECs, between 0 and 2 hours after VEGF); “reversed into repression” in the assay on Cox-2, E-selectin, TF (HUVECs, between 6 and 36 hours after VEGF, compared to untreated cells). Besides, the “increase in gene expression (COX2, E-selectin, TF mRNA)” value in the assay on Cox-2, E-selectin, TF (endothelial cells, 4 hours of incubation) is given as 2- to 3 fold.

These data come from US20060281680A1, “Methods and compositions for modulating vascular integrity” (GENENTECH, INC., priority 2005, published 2006).
